The values below are quoted from earlier work in patent publication US20050260613A1 (priority 2003, published 2005).

For the data set, the system named is AD patients. The following applies: presence of the ApoE4 allele.

On to `Nc1c2c(nc3ccccc13)CCCC2` [tacrine], for which the “response to treatment in presence of the ApoE4 polymorphism” value is given as “reduced response”.
